Measurements: patent US20200253959A1, “COMPOUNDS AND PHARMACEUTICAL COMPOSITIONS THEREOF FOR USE IN THE TREATMENT OF FIBROTIC DISEASES” (Galapagos NV, priority 2017, published 2020)
Values joined by “and” are separate entries in the source; they are usually repeats but may differ in a detail not shown here. Equal values may be shown once.

How the values were obtained:
[1] = system: subjects with IPF; assay: Functional respiratory imaging (FRI) from HRCT in IPF subjects; assay type: in vivo, human
Excerpt: HRCT will be performed (post dose if applicable) at the time points indicated in the study chart (see 1.4 above) and according to sequence of study assessments. HRCT scans will be used to generate FRI measurements allowing for an evaluation of regional IPF disease manifestation and disease progression. In case the subject is on bronchodilators, he/she can use the bronchodilator after the spirometry but prior to HRCT for FRI parameters.
At each computed tomography (CT) assessment an inspiratory and an expiratory scan will be taken. During the baseline visit an additional scan of the upper airway will be taken. The inspiratory and an expiratory scan will expose the subject to a total radiation dose of approximately 4-5 mSv per visit, including the initial CT localizer radiograph (topogram scout). The upper airway scan will expose a subject to approximately 1 mSv. A radiation dose of approximately 2-2.5 mSv is equivalent to approximately 1 year of background radiation (based on the assumption of an average “effective dose” from natural background radiation is of 3.1 mSv per year in the US and 2.4 mSv per year in Europe. (USNRC, 2014; WNA, 2015)
All CT images will be imported into Mimics, a commercial, medical image processing software package (Materialise, Leuven, Belgium, Food and Drug Administration, K073468; CE certificate, BE 05/1191 CE01) for analysis. This software package converts the HRCT images into patient specific, 3-dimensional computer models of the lung lobes, the airway lumen and wall, and the vascular tree. The airway and vascular tree are evaluated at functional residual capacity (FRC) and total lung capacity (TLC) level and can be segmented down to bronchi/vessels with a diameter of around 1-2 mm. Beyond this point the HRCT resolution is insufficient to distinguish alveolar and intraluminal air, or blood vessel tissue and surrounding lung tissues. A typical airway model includes 5-10 generations, depending mainly on the disease state of the individual patient. Afterwards the airway lumen models will be processed further to obtain a model that is suitable for flow calculations.
The following FRI parameters based on low-dose inspiratory-expiratory multi-slice CT images and computational fluid dynamics flow simulations will be evaluated. • lobar volumes at FRC and TLC • airway volumes at FRC and TLC • airway resistance • internal lobar airflow distribution • low attenuation or emphysema score at TLC • blood vessel density or fibrosis score at TLC • airway wall thickness at TLC • air trapping at FRC • mass of deposited particles per defined airway section

[2] = system: LPA 18:2; assay: Human plasma assay for the reduction of LPA 18:2; assay type: biochemical
[3] = system: subjects with IPF; assay: Clinical study in IPF subjects: pulmonary function by spirometry (FVC); assay type: in vivo, human
Experimental: The study is a randomized, double-blind, parallel group, placebo-controlled, multicenter study to evaluate the test compound in subjects with IPF.
At baseline, after the subject's eligibility for the study has been confirmed, subjects are randomized in a 3:1 ratio test compound (600 mg q.d.) : matching placebo administered for 12 weeks.
Subjects receive 600 mg of test compound (3 capsules of 200 mg) or placebo q.d. for 12 weeks administered in the morning.
Pulmonary function will be assessed through spirometry both performed at the study center (at screening, baseline, and thereafter post dose at the time points indicated in the study schedule and according to sequence of study assessments) and at home (at baseline and thereafter post dose; on a daily basis in the morning). Specific instructions on how to perform the spirometry at home are provided in a separate spirometry user manual.
The following parameters will be measured as part of the spirometry assessment: • FEV1 (L) and percent predicted FEV1 • FVC (L) and percent predicted FVC • FEV1/FVC ratio • Forced expiratory flow (FEF) between 25 and 75% of exhaled volume (FEF25-75)

[4] = system: surfactant protein A; assay: Biomarker analysis surfactant protein A in blood of IPF subjects; assay type: in vivo, human; details: following 12 weeks of treatment
Experimental: (§1) Blood samples of 14 mL will be collected predose by venipuncture (or indwelling catheter for pharmacokinetic sampling days) in the arm at the time points indicated in the study flow chart and according to sequence of study assessments.
The following exploratory biomarkers are evaluated in blood samples: • KL-6/Muc1 • surfactant protein A and D • CCL18 • ATX • MMP1, MMP7 • markers of extracellular matrix (ECM) turnover (neoepitope assay)

[5] = Test compound plasma levels and PK parameters in IPF patients (LC-MS/MS, non-compartmental analysis); assay type: in vivo, human; details: for Compound I concentration: listed as Compound I
Experimental: The test compound plasma levels were determined by LC-MS/MS and PK parameters by non-compartmental analysis using Phoenix WinNonlin.

[6] = system: LPA C8:2; assay: Plasma LPA reduction in healthy volunteers (PK/PD correlation in plasma); assay type: in vivo, human
Excerpt: (§2) A first trial is a randomized, double-blind, placebo-controlled, single center study evaluating single ascending doses (SAD) and multiple ascending (MAD) doses of compound 1 in healthy male volunteers (see Van der Aar E M, 2016).

[7] = Compound plasma concentration in healthy volunteers (PK/PD correlation in plasma); assay type: in vivo, human; details: listed as Compound I
Excerpt: as §2

[8] = system: LPA 18:2; assay: LPA 18:2 levels in blood samples of IPF subjects; assay type: in vivo, human; details: for LPA 18:2 % reduction: IPF patients, plasma
Experimental: as §1
From the blood samples, the LPA 18:2 levels are determined using laboratory techniques.

CCc1nc2c(C)cc(N3CCN(CC(=O)N4CC(O)C4)CC3)cn2c1N(C)c1nc(-c2ccc(F)cc2)c(C#N)s1 [Compound 1]
Specific airway resistance ([1]; Baseline, Compound 1 group): 0.11 kPa/sec
Specific airway volume ([1]; Baseline, Compound 1 group): 3.92 mL/L
Specific airway resistance ([1]; Week 12, 600 mg q.d.): 0.12 kPa/sec
Specific airway volume ([1]; Week 12, 600 mg q.d.): 3.80 mL/L
airway resistance (in words) ([1]; baseline vs Week 12): stabilization
airway volume (in words) ([1]; baseline vs Week 12): stabilization
IC50 in human plasma assay for the reduction of LPA 18:2 [2]: 0.143 µg/mL
FVC CFB ([3]; 600 mg q.d., Week 4, IPF subjects): +116 mL
FVC CFB ([3]; 600 mg q.d., Week 8, IPF subjects): +15 mL
FVC CFB ([3]; 600 mg q.d., Week 12, IPF subjects, mean from baseline, listed as Cpd I): +8 mL
FVC CFB ([3]; 600 mg q.d., Week 12, IPF subjects, mean from baseline, listed as compound according to Formula I): 8 mL
FVC CFB ([3]; Follow up (2 weeks after last administration of 600 mg q.d.)): -55 mL
surfactant protein A in blood (in words) [4]: statistically significant increase
Compound I concentration ([5]; Week 4 - 0 h post-dose (second line so labelled, r10), plasma): 6557 nM and 3860 ng/mL
Compound I concentration ([5]; Week 4 - 0 h post-dose, plasma): 1020 nM and 604 ng/mL
Compound I concentration ([5]; Week 12 - 0 h post-dose, plasma): 1698 nM and 1000 ng/mL
AUC ([5]; human, plasma, oral, week 4, 600 mg q.d., read-out: mean area under the plasma concentration time curve for the dosing interval of 24 hours (AUC0-τ)): 55600 ng·h/mL
Cmax ([5]; human, plasma, oral, week 4, 600 mg q.d., read-out: median maximum observed plasma concentration (Cmax)): 6060 ng/mL
Tmax ([5]; human, plasma, oral, week 4, 600 mg q.d., read-out: median tmax): 4 h
trough plasma concentration (Cτ) ([5]; week 4, 600 mg q.d.): 604 ng/mL
LPA C8:2 % reduction ([6]; D 14 - 6 h post-dose): 83%
LPA C8:2 % reduction ([6]; D 14 - 24 h post-dose): 66%
Compound I concentration ([7]; D 14 - 6 h post-dose): 6506 nM and 3830 ng/mL
Compound I concentration ([7]; D 14 - 24 h post-dose): 421 nM and 249 ng/mL
LPA18:2 percentage reduction ([8]; 600 mg q.d., Week 4, positive value = reduction): 52.48%
LPA18:2 percentage reduction ([8]; 600 mg q.d., Week 12, positive value = reduction): 67.48%
LPA18:2 percentage reduction ([8]; Follow up visit, negative value = increase in LPA levels): −34.36%
LPA 18:2 % reduction ([8]; Week 4 - 0 h post-dose (second line so labelled, r10)): 88%
LPA 18:2 % reduction ([8]; Week 4 - 0 h post-dose): 52%
LPA 18:2 % reduction ([8]; Week 12 - 0 h post-dose): 68%
LPA 18:2 levels after stopping the administration (in words) ([8]; after stopping administration): levels returning to or above baseline levels
LPA 18:2 levels on administration (in words) ([8]; during administration, 600 mg q.d.): stable decrease in LPA 18:2 levels
